According to ChEMBL document CHEMBL5465560, “Selectivity Literature for EUbOPEN Chemogenomic Library” (2024):
One block for each compound: values may come before it.

What was measured:
[1] = biological target: T1, Tyrosine-protein kinase TXK (Homo sapiens) (UniProt P42681); details: at 10 µM
T1 sequence (whole entry): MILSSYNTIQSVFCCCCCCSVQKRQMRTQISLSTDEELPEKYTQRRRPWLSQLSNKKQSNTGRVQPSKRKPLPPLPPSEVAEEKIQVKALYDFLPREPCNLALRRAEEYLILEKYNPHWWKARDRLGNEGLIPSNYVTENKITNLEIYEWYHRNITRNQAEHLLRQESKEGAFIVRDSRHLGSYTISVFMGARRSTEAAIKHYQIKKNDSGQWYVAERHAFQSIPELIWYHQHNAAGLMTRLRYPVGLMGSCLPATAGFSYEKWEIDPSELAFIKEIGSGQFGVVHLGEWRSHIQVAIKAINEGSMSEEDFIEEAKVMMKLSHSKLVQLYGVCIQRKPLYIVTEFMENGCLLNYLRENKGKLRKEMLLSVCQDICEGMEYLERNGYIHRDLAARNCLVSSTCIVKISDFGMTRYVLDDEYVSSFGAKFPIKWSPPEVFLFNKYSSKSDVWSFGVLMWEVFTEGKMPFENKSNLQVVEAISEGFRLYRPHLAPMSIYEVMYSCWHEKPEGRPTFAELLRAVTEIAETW

[2] = biological target: SRSF protein kinase 2 (Homo sapiens) (UniProt P78362); assay: Selectivity interaction (KinomeScan (DiscoverX)) EUB0000655a SRPK2; details: at 10 µM
Chain of SRSF protein kinase 2 (Homo sapiens) (P78362 whole entry, looked up): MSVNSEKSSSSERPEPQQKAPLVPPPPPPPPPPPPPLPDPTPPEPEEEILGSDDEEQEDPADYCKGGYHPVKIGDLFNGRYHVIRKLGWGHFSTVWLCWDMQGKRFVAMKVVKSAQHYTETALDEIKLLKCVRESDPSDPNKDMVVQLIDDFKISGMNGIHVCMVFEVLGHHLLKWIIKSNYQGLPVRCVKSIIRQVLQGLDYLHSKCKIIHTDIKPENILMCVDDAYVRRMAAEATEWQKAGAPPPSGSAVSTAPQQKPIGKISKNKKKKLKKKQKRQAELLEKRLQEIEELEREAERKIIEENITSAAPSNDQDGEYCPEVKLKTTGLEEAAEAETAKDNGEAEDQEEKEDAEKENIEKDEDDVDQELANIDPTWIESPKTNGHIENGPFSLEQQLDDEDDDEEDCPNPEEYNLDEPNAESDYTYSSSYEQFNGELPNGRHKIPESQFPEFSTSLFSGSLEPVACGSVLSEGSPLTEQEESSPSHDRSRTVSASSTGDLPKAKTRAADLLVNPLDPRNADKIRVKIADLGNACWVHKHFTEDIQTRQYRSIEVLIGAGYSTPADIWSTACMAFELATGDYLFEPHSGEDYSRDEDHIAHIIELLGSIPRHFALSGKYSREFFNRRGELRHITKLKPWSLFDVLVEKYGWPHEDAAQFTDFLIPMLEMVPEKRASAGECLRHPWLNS

[3] = biological target: Calcium/calmodulin-dependent protein kinase type 1 (Homo sapiens) (UniProt Q14012); assay: Selectivity interaction (KinomeScan (DiscoverX)) EUB0000618a CAMK1; details: at 10 µM
Chain of Calcium/calmodulin-dependent protein kinase type 1 (Homo sapiens) (Q14012 whole entry, looked up): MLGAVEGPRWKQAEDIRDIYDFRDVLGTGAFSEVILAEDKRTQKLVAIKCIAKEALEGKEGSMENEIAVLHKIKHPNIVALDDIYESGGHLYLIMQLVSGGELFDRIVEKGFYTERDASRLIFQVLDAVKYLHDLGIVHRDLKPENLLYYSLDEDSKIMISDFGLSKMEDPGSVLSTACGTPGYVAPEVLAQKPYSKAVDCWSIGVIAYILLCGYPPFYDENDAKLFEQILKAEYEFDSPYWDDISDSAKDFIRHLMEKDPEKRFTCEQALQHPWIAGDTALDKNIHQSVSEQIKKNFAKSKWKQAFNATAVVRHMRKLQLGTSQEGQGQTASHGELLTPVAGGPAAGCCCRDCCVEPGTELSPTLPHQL

[4] = biological target: T2, Ephrin type-B receptor 3 (Homo sapiens) (UniProt P54753); assay: Selectivity interaction (KinomeScan (DiscoverX)) EUB0001619a EPHB3; details: at 1 µM
T2 sequence (whole entry): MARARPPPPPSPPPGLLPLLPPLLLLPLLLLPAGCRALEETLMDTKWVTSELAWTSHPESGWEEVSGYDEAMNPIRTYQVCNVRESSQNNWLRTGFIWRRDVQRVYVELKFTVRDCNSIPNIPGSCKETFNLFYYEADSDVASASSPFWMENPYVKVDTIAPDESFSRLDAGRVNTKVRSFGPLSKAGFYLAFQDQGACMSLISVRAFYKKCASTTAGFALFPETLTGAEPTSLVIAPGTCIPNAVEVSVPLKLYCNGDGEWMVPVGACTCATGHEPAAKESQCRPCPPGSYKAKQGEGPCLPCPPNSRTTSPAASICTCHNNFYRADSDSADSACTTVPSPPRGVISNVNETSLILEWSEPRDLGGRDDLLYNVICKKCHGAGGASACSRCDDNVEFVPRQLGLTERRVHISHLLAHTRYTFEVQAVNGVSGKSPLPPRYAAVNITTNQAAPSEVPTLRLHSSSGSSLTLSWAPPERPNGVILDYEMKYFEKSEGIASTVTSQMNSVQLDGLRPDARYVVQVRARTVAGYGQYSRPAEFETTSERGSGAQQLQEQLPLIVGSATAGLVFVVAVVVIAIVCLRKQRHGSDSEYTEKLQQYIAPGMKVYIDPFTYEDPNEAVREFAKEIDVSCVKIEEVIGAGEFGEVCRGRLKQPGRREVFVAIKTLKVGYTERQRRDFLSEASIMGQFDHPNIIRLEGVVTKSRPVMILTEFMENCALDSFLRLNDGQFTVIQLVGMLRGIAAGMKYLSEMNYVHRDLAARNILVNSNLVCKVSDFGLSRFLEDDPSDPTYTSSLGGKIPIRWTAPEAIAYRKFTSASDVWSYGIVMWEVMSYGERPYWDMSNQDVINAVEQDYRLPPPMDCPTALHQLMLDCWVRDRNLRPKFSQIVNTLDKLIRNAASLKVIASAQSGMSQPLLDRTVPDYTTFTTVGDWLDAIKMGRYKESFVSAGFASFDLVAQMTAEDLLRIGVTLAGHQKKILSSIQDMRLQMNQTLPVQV

[5] = biological target: Tyrosine-protein kinase JAK2 (Homo sapiens, UniProt O60674); assay: Selectivity interaction (KinomeScan (DiscoverX)) EUB0000045b JAK2
Chain of Tyrosine-protein kinase JAK2 (O60674 whole entry): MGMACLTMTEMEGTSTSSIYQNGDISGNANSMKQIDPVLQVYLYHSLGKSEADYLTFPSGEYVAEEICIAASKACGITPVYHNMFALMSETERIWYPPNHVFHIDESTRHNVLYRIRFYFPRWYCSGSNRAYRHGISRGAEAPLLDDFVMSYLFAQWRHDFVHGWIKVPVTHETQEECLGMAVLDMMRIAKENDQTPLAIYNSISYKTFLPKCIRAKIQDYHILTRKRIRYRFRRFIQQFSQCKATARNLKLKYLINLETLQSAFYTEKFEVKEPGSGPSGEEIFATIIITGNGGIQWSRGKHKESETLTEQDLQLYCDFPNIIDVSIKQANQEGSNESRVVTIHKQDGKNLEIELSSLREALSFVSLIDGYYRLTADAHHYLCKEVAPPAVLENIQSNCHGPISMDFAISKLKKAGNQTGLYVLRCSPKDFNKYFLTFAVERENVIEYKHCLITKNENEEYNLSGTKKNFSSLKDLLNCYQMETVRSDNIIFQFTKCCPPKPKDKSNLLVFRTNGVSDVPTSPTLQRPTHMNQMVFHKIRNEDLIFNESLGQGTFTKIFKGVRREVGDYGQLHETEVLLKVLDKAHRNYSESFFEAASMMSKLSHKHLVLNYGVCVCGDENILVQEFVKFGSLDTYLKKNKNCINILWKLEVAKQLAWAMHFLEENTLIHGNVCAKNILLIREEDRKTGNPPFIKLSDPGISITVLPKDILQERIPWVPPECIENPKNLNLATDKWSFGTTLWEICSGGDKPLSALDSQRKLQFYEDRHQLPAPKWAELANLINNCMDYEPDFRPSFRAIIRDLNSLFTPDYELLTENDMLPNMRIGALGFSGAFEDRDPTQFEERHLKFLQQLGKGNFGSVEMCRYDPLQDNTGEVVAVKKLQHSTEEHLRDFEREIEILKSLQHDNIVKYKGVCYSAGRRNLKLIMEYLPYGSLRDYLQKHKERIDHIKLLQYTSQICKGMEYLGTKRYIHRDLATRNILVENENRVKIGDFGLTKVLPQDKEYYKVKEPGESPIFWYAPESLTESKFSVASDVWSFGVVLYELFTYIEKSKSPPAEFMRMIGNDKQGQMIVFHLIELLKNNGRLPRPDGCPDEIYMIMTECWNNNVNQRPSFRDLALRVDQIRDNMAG

[6] = biological target: Serine/threonine-protein kinase PAK 4 (Homo sapiens, UniProt O96013); assay: Selectivity interaction (Upstate Kinase Profiler service (Millipore)) EUB0000056c PAK4; details: at 1 µM
Chain of Serine/threonine-protein kinase PAK 4 (O96013 whole entry, looked up): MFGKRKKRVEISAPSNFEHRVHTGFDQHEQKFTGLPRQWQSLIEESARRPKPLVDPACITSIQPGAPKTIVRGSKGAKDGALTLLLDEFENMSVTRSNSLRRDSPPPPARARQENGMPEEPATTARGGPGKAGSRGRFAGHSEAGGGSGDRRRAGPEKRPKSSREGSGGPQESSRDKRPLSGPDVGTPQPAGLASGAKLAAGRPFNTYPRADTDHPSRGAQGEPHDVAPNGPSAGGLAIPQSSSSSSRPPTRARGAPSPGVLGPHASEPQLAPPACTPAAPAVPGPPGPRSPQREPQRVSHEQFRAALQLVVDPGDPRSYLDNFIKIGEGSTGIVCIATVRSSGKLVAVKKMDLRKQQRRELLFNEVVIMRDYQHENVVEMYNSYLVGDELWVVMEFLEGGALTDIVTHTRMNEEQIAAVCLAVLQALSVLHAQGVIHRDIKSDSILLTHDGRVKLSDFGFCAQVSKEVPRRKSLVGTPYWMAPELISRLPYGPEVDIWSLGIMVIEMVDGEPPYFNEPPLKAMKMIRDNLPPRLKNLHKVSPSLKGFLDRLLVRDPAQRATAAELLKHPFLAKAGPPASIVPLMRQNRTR

[7] = biological target: Calcium/calmodulin-dependent protein kinase type II subunit beta (Homo sapiens) (UniProt Q13554); details: at 10 µM
Chain of Calcium/calmodulin-dependent protein kinase type II subunit beta (Homo sapiens) (Q13554 whole entry): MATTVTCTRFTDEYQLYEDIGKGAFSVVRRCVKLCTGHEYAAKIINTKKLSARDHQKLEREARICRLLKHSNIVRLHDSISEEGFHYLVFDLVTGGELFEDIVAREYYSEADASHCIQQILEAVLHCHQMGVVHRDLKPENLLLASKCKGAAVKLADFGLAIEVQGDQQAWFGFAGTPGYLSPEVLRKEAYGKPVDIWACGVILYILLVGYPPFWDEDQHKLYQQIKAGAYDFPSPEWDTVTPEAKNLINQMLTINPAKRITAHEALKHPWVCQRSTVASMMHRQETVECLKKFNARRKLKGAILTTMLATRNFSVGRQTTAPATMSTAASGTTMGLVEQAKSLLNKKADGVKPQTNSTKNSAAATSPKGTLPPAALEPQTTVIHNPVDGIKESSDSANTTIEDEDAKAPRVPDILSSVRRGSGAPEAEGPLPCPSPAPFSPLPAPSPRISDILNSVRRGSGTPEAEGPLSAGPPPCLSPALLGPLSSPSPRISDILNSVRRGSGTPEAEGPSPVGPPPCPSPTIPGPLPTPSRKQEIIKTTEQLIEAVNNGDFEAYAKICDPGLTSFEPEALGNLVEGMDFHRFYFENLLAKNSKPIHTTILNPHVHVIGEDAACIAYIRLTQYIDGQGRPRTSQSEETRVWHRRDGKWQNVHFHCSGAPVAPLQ

[8] = biological target: SRSF protein kinase 1 (Homo sapiens, UniProt Q96SB4); assay: Selectivity interaction (ActivX KiNativ screen (kinase selectivity in THP-1 cell lysates)) EUB0000639a SRPK1; assay type: subcellular; details: lysate, at 0.01 µM
Chain of SRSF protein kinase 1 (Q96SB4 whole entry): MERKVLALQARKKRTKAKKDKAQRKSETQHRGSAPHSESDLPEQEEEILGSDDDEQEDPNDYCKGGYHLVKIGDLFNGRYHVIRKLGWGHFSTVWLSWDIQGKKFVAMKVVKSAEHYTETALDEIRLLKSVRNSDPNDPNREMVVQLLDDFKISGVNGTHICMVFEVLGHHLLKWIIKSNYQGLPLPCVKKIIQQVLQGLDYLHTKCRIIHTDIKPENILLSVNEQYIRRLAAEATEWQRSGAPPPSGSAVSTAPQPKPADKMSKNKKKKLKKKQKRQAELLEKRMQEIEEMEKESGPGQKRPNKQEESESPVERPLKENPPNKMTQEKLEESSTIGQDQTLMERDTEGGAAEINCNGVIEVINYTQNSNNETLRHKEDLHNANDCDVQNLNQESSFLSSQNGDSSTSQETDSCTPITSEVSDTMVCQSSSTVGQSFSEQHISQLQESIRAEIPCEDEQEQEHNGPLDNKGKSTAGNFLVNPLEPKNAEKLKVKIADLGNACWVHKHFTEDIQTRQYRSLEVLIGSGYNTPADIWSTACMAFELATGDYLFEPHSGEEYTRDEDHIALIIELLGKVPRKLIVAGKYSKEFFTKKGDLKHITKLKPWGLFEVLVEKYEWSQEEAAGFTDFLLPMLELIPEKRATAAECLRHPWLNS

[9] = biological target: T3, Ephrin type-A receptor 3 (Homo sapiens) (UniProt P29320); assay: Selectivity interaction (KinomeScan (DiscoverX)) EUB0000666a EPHA3; details: at 10 µM
T3 sequence (whole entry): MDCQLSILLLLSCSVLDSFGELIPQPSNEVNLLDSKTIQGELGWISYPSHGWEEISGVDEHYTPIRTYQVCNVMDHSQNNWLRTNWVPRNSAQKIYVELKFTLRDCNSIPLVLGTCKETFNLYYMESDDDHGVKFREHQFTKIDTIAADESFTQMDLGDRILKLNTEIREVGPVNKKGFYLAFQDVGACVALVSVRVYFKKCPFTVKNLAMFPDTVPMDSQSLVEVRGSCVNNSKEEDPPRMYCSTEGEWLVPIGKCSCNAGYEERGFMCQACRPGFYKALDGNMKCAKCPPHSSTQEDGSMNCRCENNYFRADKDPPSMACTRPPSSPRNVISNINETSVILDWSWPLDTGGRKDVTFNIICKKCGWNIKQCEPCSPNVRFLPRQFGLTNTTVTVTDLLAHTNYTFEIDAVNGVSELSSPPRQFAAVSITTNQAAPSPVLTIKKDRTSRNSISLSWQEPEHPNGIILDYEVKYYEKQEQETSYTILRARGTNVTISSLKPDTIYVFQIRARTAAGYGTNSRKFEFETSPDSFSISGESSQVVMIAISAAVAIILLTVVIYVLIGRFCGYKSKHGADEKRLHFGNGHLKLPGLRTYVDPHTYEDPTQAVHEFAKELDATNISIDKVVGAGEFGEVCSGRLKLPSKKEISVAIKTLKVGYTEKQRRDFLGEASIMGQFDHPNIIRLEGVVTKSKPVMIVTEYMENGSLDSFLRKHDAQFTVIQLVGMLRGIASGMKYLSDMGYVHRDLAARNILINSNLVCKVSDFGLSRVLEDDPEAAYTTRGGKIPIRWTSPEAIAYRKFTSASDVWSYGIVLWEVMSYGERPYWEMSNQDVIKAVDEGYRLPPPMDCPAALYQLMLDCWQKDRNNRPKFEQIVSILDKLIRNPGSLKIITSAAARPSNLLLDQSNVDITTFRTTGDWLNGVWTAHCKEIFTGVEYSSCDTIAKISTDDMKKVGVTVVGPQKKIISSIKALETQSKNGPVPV

% of control [1]: 100%
Compound: CCN(CC)CCCCNc1ncc2cc(-c3cc(OC)cc(OC)c3)c(NC(=O)NC(C)(C)C)nc2n1

Compound: CN(C)CCOc1ccc(-c2nc(-c3ccncc3)c(-c3ccc4c(c3)CC/C4=N\O)[nH]2)cc1
% of control [2]: 100%

Compound: O[C@H]1CC[C@H](Nc2ncc3nc(Nc4c(F)cc(F)cc4F)n([C@H]4CCOC4)c3n2)CC1
% of control [3]: 100%

Compound: N#Cc1cccc(-c2c[nH]c3ncnc(N4CCOCC4)c23)c1
% of control [4]: 100%

Compound: C=CC(=O)Nc1cc(-n2c(=O)ccc3cnc4ccc(-c5ccc(NS(C)(=O)=O)cc5)cc4c32)ccc1C
% of control ([5]; at 1 µM): 86%
% of control ([5]; at 10 µM): 100%

% of inhibition [6]: 3%
Compound: Cc1ccc(-c2ccc3c(ccc4sc5c(c43)NC[C@@H](C)NC5=O)n2)cn1

Compound: Cc1cc([C@@H](C)Nc2ccccc2C(=O)O)c2nc(N3CCOCC3)cc(=O)n2c1 [AZD-6482]
% of control [7]: 83%

% of inhibition [8]: -7.7%
Compound: CC[C@@H]1[C@H](F)C(=O)N[C@@H]1COc1nccc2cc(C(N)=O)c(OC)cc12 [ZIMLOVISERTIB]

Compound: O=C(NOC[C@H](O)CO)c1ccc(F)c(F)c1Nc1ccc(I)cc1F
% of control [9]: 100%
